Key:
M-07e cells = assay: Transduction efficiency of rAAV-GFP clones on M-07e cells (FACS), with or without competitors; format: cell-based, human
Method: Cells were seeded in 96 or 24 well plates (Nunc, Wiesbaden, Germany) and infected with rAAV-GFP clones, harvested 48 hrs p.i., washed and resuspended in 1 ml PBS. The percentage of GFP expressing cells was determined by flow cytometry with a Coulter Epics XL-MCL (Beckman Coulter, Krefeld, Germany). A minimum of 5000 cells were analyzed for each sample. Infectivity of the retargeted mutants was determined in the presence or absence of various concentrations of GRGDTP or GRGES peptides (Bachem, Bubendorf, Swiss) or 5 I.U./[II soluble heparin (Braun, Melsungen, Germany).
The selected capsid mutants were tested for their ability to transduce M-07e cells (FIG. 5a). At a genomic particle/cell ratio of 2×10^4, the mutants rAAV-M07A and rAAV-M07T transduced 50±2.5% and 47±2.7% of M-07e cells, respectively, representing a 100 and 94 fold increase in comparison to rAAV-wt transduction efficiency (0.5±0.01%). In contrast, rAAV-MecA and rAAV-MecB transduced M-07e cells with an efficiency of only 8.1±1.5% and 16±2%. The vector rAAV-L14, carrying an RGD motif inserted at position 587 (Girod A et al (1999) supra), was also compared. […] This highlighted the advantage of the combinatorial approach when compared with the simple insertion of an exogenous sequence.
We then examined whether the transduction of M-07e cells by rAAV-M07A and rAAV-M07T vectors was specifically mediated by the amino acids inserted at position 587. In the capsid of wt AAV, the region around position 587 is involved in the binding to heparan sulfate proteoglycan (HSPG) (Nicklin S A et al. (2001) Mol. Ther. 4, 174-81; Wu P. et al. (2000) J. Virol. 74, 8635-47), the primary receptor of AAV-2 (Summerford C and Samulski J (1998) J. Virol. 72, 1438-45). Pre-incubation with soluble heparin, an HSPG analogue and competitor, inhibited transduction of M-07e cells by rAAV-MecB but not by rAAV-M07A, rAAV-M07T and rAAV-MecA (FIG. 5a). […] This effect was concentration-dependent (FIG. 5b). […]

[1] = target: integrin receptor expressed on the surface of the target cells; assay: cell-based or functional assay

GRGES was tested, and the “effect of inactive GRGES peptide on transduction” value (M-07e cells; M-07e cells, 450 μM) was “no effect”.

With RGDS the “reduction of transduction efficiencies by competing RGDS peptide” value (M-07e cells; M07e cells incubated with 100 uM peptide prior to infection) was “more than 50%”.

In the case of RGES, the “effect of RGES peptide pre-incubation on infection” value (M-07e cells; M07e cells) is reported as “failed to inhibit”.

“rAAV-M07A (RGDAVGV insertion) (from UniProt P03135 1-587; P03135 588-735)” was tested, and the reduction of M07e cell transduction after incubation of the cells with 100 uM RGDS peptide [1] was over 50%.

For “rAAV-M07T (RGDTPTS insertion) (from UniProt P03135 1-587; P03135 588-735)”, the reduction of M07e cell transduction after incubation of the cells with 100 uM RGDS peptide [1] was over 50%.

— patent publication US20050106558A1, “Library of modified structural genes or capsid modified particles useful for the identification of viral clones with desired cell tropism” (priority 2001, published 2005)
